Results reported in patent US8003649B2 (AstraZeneca AB, priority 2007, dated 2011).

Target: T1, Androgen Receptor (AR) (Homo sapiens, UniProt P10275, T878A)
T1 construct: cell based immuno-fluorescence assay using the LNCaP prostate epithelial cell line; endogenous in cells; host or cells: LNCaP clone FGC (ATCC CRL-1740)
T1 sequence (P10275 1-920 T878A): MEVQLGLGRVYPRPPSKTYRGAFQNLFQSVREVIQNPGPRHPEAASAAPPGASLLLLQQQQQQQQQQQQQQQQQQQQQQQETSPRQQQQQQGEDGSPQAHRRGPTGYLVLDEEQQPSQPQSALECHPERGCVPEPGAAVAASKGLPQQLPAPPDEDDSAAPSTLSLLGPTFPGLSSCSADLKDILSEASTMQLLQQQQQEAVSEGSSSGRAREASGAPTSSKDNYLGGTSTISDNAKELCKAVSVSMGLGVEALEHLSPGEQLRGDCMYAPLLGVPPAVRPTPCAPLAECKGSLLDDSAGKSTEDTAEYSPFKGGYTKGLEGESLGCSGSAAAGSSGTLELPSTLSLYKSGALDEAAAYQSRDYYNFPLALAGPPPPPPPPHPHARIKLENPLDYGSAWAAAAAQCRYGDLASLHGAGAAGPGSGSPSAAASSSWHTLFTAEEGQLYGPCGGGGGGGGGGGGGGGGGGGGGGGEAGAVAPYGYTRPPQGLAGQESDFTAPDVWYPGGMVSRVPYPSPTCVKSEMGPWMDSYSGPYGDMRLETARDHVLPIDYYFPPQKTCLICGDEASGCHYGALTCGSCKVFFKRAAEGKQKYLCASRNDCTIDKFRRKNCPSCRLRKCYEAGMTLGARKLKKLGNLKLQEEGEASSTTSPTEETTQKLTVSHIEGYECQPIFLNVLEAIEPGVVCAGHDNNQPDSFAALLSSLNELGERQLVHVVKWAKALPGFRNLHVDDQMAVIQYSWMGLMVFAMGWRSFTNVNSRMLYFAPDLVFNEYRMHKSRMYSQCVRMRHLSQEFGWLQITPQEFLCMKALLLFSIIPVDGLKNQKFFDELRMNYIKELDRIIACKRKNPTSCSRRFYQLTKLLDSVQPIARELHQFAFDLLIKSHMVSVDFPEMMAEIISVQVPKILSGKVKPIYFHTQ
Assay: LNCaP Androgen Receptor Down-regulation Cell Assay (immunofluorescence end point)
Assay type: cell-based
Settings: LNCaP prostate carcinoma cells, compound incubation 20-22 hours, 50% reduction of the AR signal; read-out: Androgen Receptor Down-regulation Assay (a) IC50/μM
Experimental: The ability of compounds to reduce Androgen Receptor (AR) numbers was assessed in a cell based immuno-fluorescence assay using the LNCaP prostate epithelial cell line.
a) LNCaP Androgen Receptor Down-regulation Cell Assay
A 5 ml volume of Growth Medium was added to each flask (as above except that 5% (v/v) charcoal stripped FBS (HyClone Code no. SH30068.03) was included instead of 10% (v/v) FBS). Cells were syringed at least twice using a sterile 18G×1.5″ (1.2×40 mm) broad gauge needle and cell density was measured using a haemocytometer.
Test data reported herein was generated using two different compounds preparation and dosing methods. In method (1) a 10 mM compound stock solution in 100% (v/v) DMSO was serially diluted in 4-fold steps in 100% (v/v) DMSO using a Thermo Scientific Matrix SerialMate. The diluted compounds were then further diluted 1 in 30 in assay media using a Thermo Scientific Matrix PlateMate and a 10 μl aliquot of this dilution was dosed to cells manually using a multi-channel pipette. In method (2) starting with a 10 mM compound stock solution, the Labcyte Echo 550 was used to generate a compound concentration response set diluted in 30 μl of assay media. The Echo 550 is a liquid handler that uses acoustic technology to perform direct microplate-to-microplate transfers of DMSO compound solutions. The system can be programmed to transfer volumes as low as […] in multiple increments between microplates and in so doing generates a serial dilution of compound which is then back-filled to normalise the DMSO concentration across the dilution range. A 10 μl volume of diluted compound is then dosed to cells using a Thermo Scientific Matrix PlateMate.
Plates were incubated overnight at 37° C., 5% CO2. Wells were then dosed with compound prepared by one of the 2 methods above and further incubated for 20-22 hours at 37° C., 5% CO2. […] This fixative solution was removed and cells were washed with 250 μl of PBS/0.05% (v/v) Tween 20 (PBST) using an automated plate washer. This process was then repeated twice more.
Immunostaining was performed at room temperature. Cells were permeabilised by the addition of 35 μl of PBS containing 0.5% Tween 20 and incubated for 1 hour at room temperature. Permeabilisation solution was removed and cells were washed with 250 μl of PBST using an automated plate washer. This process was then repeated twice more. 35 μl of Blocking Solution (PBST containing 3% (w/v) Marvel dried skimmed milk (Nestle)) was added to each well and plates were incubated at room temperature for a minimum of 1 hour. […] Then this primary antibody solution was removed from the wells followed by 3×100 μl PBST washes using a plate washer. […] Henceforth, wherever possible, plates were protected from light exposure. The plates were incubated for 1 hour and then the secondary antibody solution was removed from the wells followed by 3×100 ul PBST washes using a plate washer. Then 50 μl of PBST was added to each well and plates were covered with a black plate seal and stored at 4° C. before being read. Plates were read within six hours of completing the immunostaining.
The Green Fluorescent AR-associated signal in each well was measured using an Acumen Explorer HTS Reader (TTP Labtech Ltd., Cambridge). […] The instrument is a laser-scanning fluorescence microplate cytometer which samples the well at regular intervals and uses threshold algorithms to identify all fluorescent intensities above the solution background without the need to generate and analyse an image. These fluorescent objects can be quantified and provide a measure of the AR levels in cells. Fluorescence dose response data obtained with each compound was exported into a suitable software package (such as Origin) to perform curve fitting analysis. Down-regulation of AR levels was expressed as an IC50 value.

DC50 | Compound
3.4 µM | FC(F)C(F)(F)c1nnc2ccc(N3CCN(C(c4ccccc4)c4ccccc4)CC3)nn12 [Example 1, 6-(4-benzhydrylpiperazin-1-yl)-3-(1,1,2,2-tetrafluoroethyl)-[1,2,4]triazolo[4,3-b]pyridazine]
8.3 µM | FC(F)C(F)(F)c1nnc2ccc(N3CCCN(Cc4ccccc4)CC3)nn12 [Example 2, 6-(4-benzyl-1,4-diazepan-1-yl)-3-(1,1,2,2-tetrafluoroethyl)-[1,2,4]triazolo[4,3-b]pyridazine]
1.6 µM | FC(F)c1nnc2ccc(N3CCN(C(c4ccccc4)c4ccccc4)CC3)nn12 [Example 5, 6-(4-benzhydrylpiperazin-1-yl)-3-(difluoromethyl)-[1,2,4]triazolo[4,3-b]pyridazine]
7.5 µM | FC(F)c1nnc2ccc(N3CCCN(Cc4ccccc4)CC3)nn12 [Example 6, 6-(4-benzyl-1,4-diazepan-1-yl)-3-(difluoromethyl)-[1,2,4]triazolo[4,3-b]pyridazine]
1.7 µM | Clc1nnc2ccc(N3CCN(C(c4ccccc4)c4ccccc4)CC3)nn12 [Example 8, 6-(4-benzhydrylpiperazin-1-yl)-3-chloro-[1,2,4]triazolo[4,3-b]pyridazine]
1.7 µM | CSc1nnc2ccc(N3CCN(C(c4ccccc4)c4ccccc4)CC3)nn12 [Example 9, 6-(4-benzhydrylpiperazin-1-yl)-3-methylsulfanyl-[1,2,4]triazolo[4,3-b]pyridazine]
2.5 µM | FC(F)(F)c1nnc2ccc(N3CCN(c4ccc(Br)cn4)CC3)nn12 [Example 11, 6-[4-(5-bromopyridin-2-yl)piperazin-1-yl]-3-(trifluoromethyl)-[1,2,4]triazolo[4,3-b]pyridazine]
4.3 µM | Cc1cc(N2CCN(Cc3ccc(C#N)cc3)CC2)nn2c(C(F)(F)F)nnc12 [Example 12, 4-((4-(8-Methyl-3-(trifluoromethyl)-[1,2,4]triazolo[4,3-b]pyridazin-6-yl)piperazin-1-yl)methyl)benzonitrile]
8.4 µM | Cc1cc2nnc(C(F)(F)F)n2nc1N1CCN(Cc2ccc(C#N)cc2)CC1 [Example 13, 4-((4-(7-Methyl-3-(trifluoromethyl)-[1,2,4]triazolo[4,3-b]pyridazin-6-yl)piperazin-1-yl)methyl)benzonitrile]
0.69 µM | FC(F)(F)c1nnc2ccc(N3CCN(Cc4ccc(Cl)cc4)CC3)nn12 [Example 14, 6-[4-[(4-chlorophenyl)methyl]piperazin-1-yl]-3-(trifluoromethyl)-[1,2,4]triazolo[4,3-b]pyridazine]
2.5 µM | COc1ccc(CN2CCN(c3ccc4nnc(C(F)(F)F)n4n3)CC2)cc1 [Example 15, 6-[4-[(4-methoxyphenyl)methyl]piperazin-1-yl]-3-(trifluoromethyl)-[1,2,4]triazolo[4,3-b]pyridazine]
0.77 µM | Cc1cccc(C)c1N1CCN(c2ccc3nnc(C(F)(F)F)n3n2)CC1 [Example 16, 6-[4-(2,6-dimethylphenyl)piperazin-1-yl]-3-(trifluoromethyl)-[1,2,4]triazolo[4,3-b]pyridazine]
2.5 µM | CC(=O)c1ccc(N2CCN(c3ccc4nnc(C(F)(F)F)n4n3)CC2)cc1 [Example 17, 1-[4-[4-[3-(trifluoromethyl)-[1,2,4]triazolo[4,3-b]pyridazin-6-yl]piperazin-1-yl]phenyl]ethanone]
0.52 µM | FC(F)(F)c1nnc2ccc(N3CCN(c4c(Cl)cncc4Cl)CC3)nn12 [Example 19, 6-[4-(3,5-dichloropyridin-4-yl)piperazin-1-yl]-3-(trifluoromethyl)-[1,2,4]triazolo[4,3-b]pyridazine]
1.8 µM | O=C1NCN(c2ccccc2)C12CCN(c1ccc3nnc(C(F)(F)F)n3n1)CC2 [Example 20, 1-phenyl-8-[3-(trifluoromethyl)-[1,2,4]triazolo[4,3-b]pyridazin-6-yl]-1,3,8-triazaspiro[4.5]decan-4-one]
0.27 µM | O=[N+]([O-])c1ccc(N2CCN(c3ccc4nnc(C(F)(F)F)n4n3)CC2)cc1 [Example 21, 6-[4-(4-nitrophenyl)piperazin-1-yl]-3-(trifluoromethyl)-[1,2,4]triazolo[4,3-b]pyridazine]
